Laboratory results from patent publication US20230257367A1, “NOVEL THYROID HORMONE BETA RECEPTOR AGONIST” (Chengdu Kanghong Pharmaceutical Co., Ltd., priority 2020, published 2023).

These compounds were tested against T1, TRα-LBD/RXRα (Homo sapiens, UniProt P10827) (assay: In vitro binding experiment (TR-FRET SRC2-2 co-activator peptide recruitment), TRα). Settings: 4 h incubation at room temperature.
T1 construct: TRα-LBD (Invitrogen, PV4762), or TRβ-LBD (Invitrogen, PV4764) with a GST tag were used; purchased Invitrogen (TRα-LBD); Pharmaron (RXRα) PV4762
T1 sequence (P19793 whole entry partner, other chains not shown, the tested form may be a part): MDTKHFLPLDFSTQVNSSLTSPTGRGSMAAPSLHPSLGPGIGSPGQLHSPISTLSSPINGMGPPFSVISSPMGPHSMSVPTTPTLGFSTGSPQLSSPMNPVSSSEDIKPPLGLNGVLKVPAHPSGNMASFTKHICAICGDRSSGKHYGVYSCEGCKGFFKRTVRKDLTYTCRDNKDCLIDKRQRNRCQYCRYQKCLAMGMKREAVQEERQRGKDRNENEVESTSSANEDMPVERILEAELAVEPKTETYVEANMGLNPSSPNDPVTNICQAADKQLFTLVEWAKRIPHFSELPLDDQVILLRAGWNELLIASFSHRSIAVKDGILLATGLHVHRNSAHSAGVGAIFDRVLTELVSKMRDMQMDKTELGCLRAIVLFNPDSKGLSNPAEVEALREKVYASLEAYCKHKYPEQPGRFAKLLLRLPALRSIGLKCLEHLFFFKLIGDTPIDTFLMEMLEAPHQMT
Type: biochemical

Point of comparison: `CC(C)c1nc(Oc2c(Cl)cc(-n3nc(C#N)c(=O)[nH]c3=O)c3c2CCO3)ncc1O` [KH07], EC50 0.31 µM. Against it:
- N#Cc1nn(-c2cc(Cl)c(Oc3ncc(O)c(CC4CCCCC4)n3)c(Cl)c2)c(=O)[nH]c1=O [KHE007] — 17-fold higher, 5.12 µM
- CC(C)c1nc(Sc2c(Cl)cc(-n3ncc(=O)[nH]c3=O)cc2Cl)ncc1O [KH18] — 1.6-fold lower, 0.188 µM
- N#Cc1nn(-c2cc(Cl)c(Oc3ncc(O)c(Cc4ccc(F)cc4)n3)c(Cl)c2)c(=O)[nH]c1=O [KHE001] — within 1.5-fold, 0.418 µM
- CC(C)c1nc(Oc2c(Cl)cc(NC(=O)C(=O)O)cc2Cl)ncc1O [KHE021] — 39-fold lower, 0.008 µM
- CC(C)c1nc(Oc2c(Cl)cc(-n3ncc(=O)[nH]c3=O)c3c2CCC3)ncc1O [KH14] — 3-fold lower, 0.102 µM
- [2H]C([2H])([2H])C(c1nc(Oc2c(Cl)cc(-n3nc(C#N)c(=O)[nH]c3=O)cc2Cl)ncc1O)C([2H])([2H])[2H] [KH15] — 1.6-fold lower, 0.194 µM
- CCC(CC)c1nc(Oc2c(Cl)cc(-n3nc(C#N)c(=O)[nH]c3=O)cc2Cl)ncc1O [KHE009] — within 1.5-fold, 0.258 µM
- O=c1cnn(-c2cc(Cl)c(Oc3ncc(O)c(C4CC4)n3)c(Cl)c2)c(=O)[nH]1 [KHE018] — within 1.5-fold, 0.346 µM
- [2H]C([2H])([2H])C(c1nc(Oc2c(Cl)cc(-n3ncc(=O)[nH]c3=O)cc2Cl)ncc1O)C([2H])([2H])[2H] [KH16] — 2.9-fold lower, 0.106 µM
- CC(C)c1nc(Oc2c(Cl)cc(-n3nc(C#N)c(=O)[nH]c3=O)c3c2CCC3)ncc1O [KH13] — 2.3-fold lower, 0.132 µM

What follows are compounds tested against T2, TRβ-LBD/RXRα (Homo sapiens, UniProt P10828) (assay: In vitro binding experiment (TR-FRET SRC2-2 co-activator peptide recruitment), TRβ). Settings: 4 h incubation at room temperature.
T2 construct: TRβ-LBD (Invitrogen, PV4764) with a GST tag were used; purchased Invitrogen (TRβ-LBD); Pharmaron (RXRα) PV4764
T2 sequence (P19793 whole entry partner, other chains not shown, the tested form may be a part): as above
Type: biochemical

Point of comparison: `N#Cc1nn(-c2cc(Cl)c(Oc3ncc(O)c(Cc4ccc(F)cc4)n3)c(Cl)c2)c(=O)[nH]c1=O` [KHE001], EC50 0.007 µM. Against it:
- N#Cc1nn(-c2cc(Cl)c(Oc3ncc(O)c(CC4CCCCC4)n3)c(Cl)c2)c(=O)[nH]c1=O [KHE007] — 13-fold higher, 0.089 µM
- CC(C)c1nc(Sc2c(Cl)cc(-n3ncc(=O)[nH]c3=O)cc2Cl)ncc1O [KH18] — 1.6-fold higher, 0.011 µM
- CC(C)c1nc(Oc2c(Cl)cc(NC(=O)C(=O)O)cc2Cl)ncc1O [KHE021] — 7-fold lower, 0.001 µM
- CC(C)c1nc(Oc2c(Cl)cc(-n3ncc(=O)[nH]c3=O)c3c2CCC3)ncc1O [KH14] — 15-fold higher, 0.105 µM
- [2H]C([2H])([2H])C(c1nc(Oc2c(Cl)cc(-n3nc(C#N)c(=O)[nH]c3=O)cc2Cl)ncc1O)C([2H])([2H])[2H] [KH15] — 2-fold higher, 0.014 µM
- CCC(CC)c1nc(Oc2c(Cl)cc(-n3nc(C#N)c(=O)[nH]c3=O)cc2Cl)ncc1O [KHE009] — 5.7-fold higher, 0.04 µM
- O=c1cnn(-c2cc(Cl)c(Oc3ncc(O)c(C4CC4)n3)c(Cl)c2)c(=O)[nH]1 [KHE018] — 5.7-fold higher, 0.04 µM
- [2H]C([2H])([2H])C(c1nc(Oc2c(Cl)cc(-n3ncc(=O)[nH]c3=O)cc2Cl)ncc1O)C([2H])([2H])[2H] [KH16] — 1.7-fold higher, 0.012 µM
- CC(C)c1nc(Oc2c(Cl)cc(-n3nc(C#N)c(=O)[nH]c3=O)c3c2CCC3)ncc1O [KH13] — 7.7-fold higher, 0.054 µM
- CC(C)c1nc(Oc2c(Cl)cc(-n3nc(C#N)c(=O)[nH]c3=O)c3c2CCO3)ncc1O [KH07] — 6.9-fold higher, 0.048 µM

These compounds were tested against T3, TRα (Homo sapiens, UniProt P10827) (assay: In vitro TRα cell transfection experiment (GAL4 luciferase reporter, HEK293T)). Settings: not given.
T3 construct: host or cells: HEK293T
T3 sequence (P10827 1-410 isoform P10827-2): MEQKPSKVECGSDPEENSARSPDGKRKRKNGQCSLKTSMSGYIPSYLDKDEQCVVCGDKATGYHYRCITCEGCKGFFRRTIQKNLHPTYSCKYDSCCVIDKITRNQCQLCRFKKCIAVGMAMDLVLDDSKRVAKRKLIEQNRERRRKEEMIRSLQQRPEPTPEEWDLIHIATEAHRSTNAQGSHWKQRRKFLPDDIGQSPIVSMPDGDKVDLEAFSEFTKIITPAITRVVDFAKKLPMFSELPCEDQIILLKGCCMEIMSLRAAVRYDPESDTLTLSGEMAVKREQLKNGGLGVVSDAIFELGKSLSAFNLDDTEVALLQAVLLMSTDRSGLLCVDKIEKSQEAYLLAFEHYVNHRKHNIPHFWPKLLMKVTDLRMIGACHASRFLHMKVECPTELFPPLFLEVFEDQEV
T3 sequence (P19793 227-458 partner limits assumed): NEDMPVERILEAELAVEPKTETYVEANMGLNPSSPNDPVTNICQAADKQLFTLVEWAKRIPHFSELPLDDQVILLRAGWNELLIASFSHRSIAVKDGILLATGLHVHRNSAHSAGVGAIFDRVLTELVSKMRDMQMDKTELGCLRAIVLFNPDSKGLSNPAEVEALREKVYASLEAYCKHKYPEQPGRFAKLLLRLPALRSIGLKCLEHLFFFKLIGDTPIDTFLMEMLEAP
Type: cell-based

Point of comparison: `O=c1cnn(-c2cc(Cl)c(Oc3ncc(O)c(C4CC4)n3)c(Cl)c2)c(=O)[nH]1` [KHE018], EC50 0.407 µM. Against it:
- N#Cc1nn(-c2cc(Cl)c(Oc3ncc(O)c(CC4CCCCC4)n3)c(Cl)c2)c(=O)[nH]c1=O [KHE007] — within 1.5-fold, 0.528 µM
- CC(C)c1nc(Sc2c(Cl)cc(-n3ncc(=O)[nH]c3=O)cc2Cl)ncc1O [KH18] — 15-fold lower, 0.028 µM
- N#Cc1nn(-c2cc(Cl)c(Oc3ncc(O)c(Cc4ccc(F)cc4)n3)c(Cl)c2)c(=O)[nH]c1=O [KHE001] — within 1.5-fold, 0.563 µM
- CC(C)c1nc(Oc2c(Cl)cc(NC(=O)C(=O)O)cc2Cl)ncc1O [KHE021] — 2.9-fold higher, 1.17 µM
- CC(C)c1nc(Oc2c(Cl)cc(-n3ncc(=O)[nH]c3=O)c3c2CCC3)ncc1O [KH14] — within 1.5-fold, 0.383 µM
- [2H]C([2H])([2H])C(c1nc(Oc2c(Cl)cc(-n3nc(C#N)c(=O)[nH]c3=O)cc2Cl)ncc1O)C([2H])([2H])[2H] [KH15] — 3.6-fold higher, 1.46 µM
- CCC(CC)c1nc(Oc2c(Cl)cc(-n3nc(C#N)c(=O)[nH]c3=O)cc2Cl)ncc1O [KHE009] — within 1.5-fold, 0.507 µM
- [2H]C([2H])([2H])C(c1nc(Oc2c(Cl)cc(-n3ncc(=O)[nH]c3=O)cc2Cl)ncc1O)C([2H])([2H])[2H] [KH16] — 2.9-fold lower, 0.138 µM
- CC(C)c1nc(Oc2c(Cl)cc(-n3nc(C#N)c(=O)[nH]c3=O)c3c2CCC3)ncc1O [KH13] — 6.7-fold higher, 2.74 µM
- CC(C)c1nc(Oc2c(Cl)cc(-n3nc(C#N)c(=O)[nH]c3=O)c3c2CCO3)ncc1O [KH07] — 2.4-fold higher, 0.964 µM

These compounds were tested against T4, TRβ (Homo sapiens, UniProt P10828) (assay: In vitro TRβ cell transfection experiment (GAL4 luciferase reporter, HEK293T)). Settings: not given.
T4 construct: host or cells: HEK293T
T4 sequence (P10828 217-461 limits assumed): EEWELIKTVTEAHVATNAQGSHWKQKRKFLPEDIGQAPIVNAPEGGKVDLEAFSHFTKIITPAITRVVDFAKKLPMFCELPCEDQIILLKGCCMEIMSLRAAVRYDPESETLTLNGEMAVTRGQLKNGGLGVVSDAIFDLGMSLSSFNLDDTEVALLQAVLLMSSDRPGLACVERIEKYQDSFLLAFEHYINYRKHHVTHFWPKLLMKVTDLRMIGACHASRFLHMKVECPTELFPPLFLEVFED
T4 sequence (P19793 227-458 partner limits assumed): T3 sequence (P19793 227-458 partner limits assumed)
Type: cell-based

Point of comparison: `CC(C)c1nc(Oc2c(Cl)cc(NC(=O)C(=O)O)cc2Cl)ncc1O` [KHE021], EC50 0.5 µM. Against it:
- N#Cc1nn(-c2cc(Cl)c(Oc3ncc(O)c(CC4CCCCC4)n3)c(Cl)c2)c(=O)[nH]c1=O [KHE007] — 2.2-fold lower, 0.227 µM
- CC(C)c1nc(Sc2c(Cl)cc(-n3ncc(=O)[nH]c3=O)cc2Cl)ncc1O [KH18] — 71-fold lower, 0.007 µM
- N#Cc1nn(-c2cc(Cl)c(Oc3ncc(O)c(Cc4ccc(F)cc4)n3)c(Cl)c2)c(=O)[nH]c1=O [KHE001] — 1.9-fold lower, 0.258 µM
- CC(C)c1nc(Oc2c(Cl)cc(-n3ncc(=O)[nH]c3=O)c3c2CCC3)ncc1O [KH14] — 3.4-fold lower, 0.148 µM
- [2H]C([2H])([2H])C(c1nc(Oc2c(Cl)cc(-n3nc(C#N)c(=O)[nH]c3=O)cc2Cl)ncc1O)C([2H])([2H])[2H] [KH15] — 2.4-fold lower, 0.205 µM
- CCC(CC)c1nc(Oc2c(Cl)cc(-n3nc(C#N)c(=O)[nH]c3=O)cc2Cl)ncc1O [KHE009] — 6.8-fold lower, 0.074 µM
- O=c1cnn(-c2cc(Cl)c(Oc3ncc(O)c(C4CC4)n3)c(Cl)c2)c(=O)[nH]1 [KHE018] — 4.9-fold lower, 0.102 µM
- [2H]C([2H])([2H])C(c1nc(Oc2c(Cl)cc(-n3ncc(=O)[nH]c3=O)cc2Cl)ncc1O)C([2H])([2H])[2H] [KH16] — 26-fold lower, 0.019 µM
- CC(C)c1nc(Oc2c(Cl)cc(-n3nc(C#N)c(=O)[nH]c3=O)c3c2CCC3)ncc1O [KH13] — 2.3-fold higher, 1.13 µM
- CC(C)c1nc(Oc2c(Cl)cc(-n3nc(C#N)c(=O)[nH]c3=O)c3c2CCO3)ncc1O [KH07] — 2.4-fold lower, 0.208 µM
